In patent US9670261B2 (Sanofi, priority 2012, dated 2017):
pEC50: −log10 of the molar value. *1 amine or outer side, *2 acyl side, *3 side chain or, on linkers, in order; H or OH if unused. Where a SMILES comes first, the peptide text is derived from it. Side-chain parts run from the residue outwards. [ ]: non-standard residue; d: D form. The star is where a group is joined. γGlu = O=C(O)[C@H](CCC(=O)[*:2])N[*:1]; Palmitoyl = CCCCCCCCCCCCCCCC(=O)*; Aib = CC(C)(N)C(=O)O

Legend:
[1] = system: female leptin-receptor deficient diabetic db/db mice; experiment: Blood glucose and HbA1c in leptin-receptor deficient diabetic db/db mice (method 3); assay type: in vivo
Summary of the method: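 Female db/db mice (9–10 weeks at arrival) dosed at 5 mL/kg for 4 weeks with free food and water. Tail blood without anaesthesia: glucose by hexokinase and HbA1c measured before and at end of treatment, plus a 24-h glucose profile; repeated-measures two-way ANOVA with Dunnett's versus vehicle db/db, p<0.05.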

[2] = system: female NMRI-mice; experiment: Automated assessment of 22-hours feed intake in mice; assay type: in vivo
Protocol: Female NMRI-mice of a body weight between 20 and 30 g were used. Mice were adapted to housing conditions for at least one week and for at least one day single-caged in the assessment equipment, when basal data were recorded simultaneously. On the study day, test product was administered subcutaneously close to the lights-off phase (12 h lights off) and assessment of feed consumption was directly started afterwards. Assessment included continued monitoring over 22 hours, while data are processed as mean over every 30 min. Repetition of this procedure over several days was possible. Restriction of assessment to 22 hours was for practical reasons to allow for reweighing of animals, refilling of feed and water and drug administration between procedures. Results could be assessed as cumulated data over 22 hours or differentiated to 30 min intervals. […] Statistical analyses were performed with Everstat 6.0 by two-way ANOVA on repeated measures and Dunnett's post-hoc analyses. Differences were considered statistically significant at the p<0.05 level. […] Lights-off phase (dark phase) started 4 hours later. […].

[3] = target: T1, human GLP-1 receptor (Homo sapiens, UniProt P43220); experiment: cAMP response (HTRF) of HEK-293 cells stably expressing human GLP-1 receptor; assay type: cell-based; settings: Table 7; cAMP formation; read-out: EC50 hGLP-1 R
T1 construct: expressed in transfected cells
T1 sequence (P43220 24-463): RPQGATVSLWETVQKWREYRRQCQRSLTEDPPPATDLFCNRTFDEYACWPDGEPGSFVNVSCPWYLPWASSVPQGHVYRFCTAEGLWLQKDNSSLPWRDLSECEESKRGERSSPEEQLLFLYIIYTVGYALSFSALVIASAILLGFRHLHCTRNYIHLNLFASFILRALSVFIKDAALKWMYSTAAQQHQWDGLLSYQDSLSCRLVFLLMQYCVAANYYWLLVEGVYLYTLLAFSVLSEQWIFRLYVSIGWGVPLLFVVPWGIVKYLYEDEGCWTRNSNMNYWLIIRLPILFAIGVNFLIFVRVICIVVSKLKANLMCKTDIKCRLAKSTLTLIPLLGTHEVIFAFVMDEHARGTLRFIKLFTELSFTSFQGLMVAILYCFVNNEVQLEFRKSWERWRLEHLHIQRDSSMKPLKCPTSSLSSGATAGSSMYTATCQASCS
Summary of the method: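 Stably transfected HEK-293 cells, accutase-harvested; assay buffer 1×HBSS/20 mM HEPES/0.1% BSA/2 mM IBMX; 400000 cells/ml; compound 30 min, RT; cAMP by HTRF kit.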

[4] = system: female diet-induced obese (DIO) C57BL/6NCrl mice; experiment: Body weight in DIO mice, 14 weeks of prefeeding with high-fat diet (method 2); assay type: in vivo
Protocol: Female C57BL/6NCrl mice were housed in groups in a specific pathogen-free barrier facility on a 12 h light/dark cycle with free access to water and high-fat diet. After 14 weeks on high-fat diet, mice were stratified to treatment groups (n=8), so that each group had similar mean body weight.
An aged-matched group with ad libitum access to standard chow and water was included as standard control group.
Before the experiment, mice were subcutaneously (s.c.) injected with vehicle solution and weighed for 3 days to acclimate them to the procedures.
Body weight was recorded daily.
Statistical analyses were performed with Everstat 6.0 by repeated measures two-way ANOVA and Dunnett's post-hoc analyses (glucose profile) and 1-way-ANOVA, followed by Dunnett's post-hoc test (body weight, body fat). Differences versus vehicle-treated DIO control mice were considered statistically significant at the p<0.05 level.
Female obese C57BL/6NCrl mice were treated for 3 weeks once daily subcutaneously in the late afternoon, prior the end of the light phase (12 h lights on) with 10 μg/kg SEQ ID NO: 9 and SEQ ID NO: 21 or vehicle. Body weight was recorded daily.

## CCCCCCCCCCCCCCCC(=O)N[C@@H](CCC(=O)NCCCC[C@H](NC(=O)[C@H](CCC(N)=O)NC(=O)[C@@H](NC(=O)[C@H](CO)NC(=O)[C@H](CC(C)C)NC(=O)[C@H](CC(=O)O)NC(=O)[C@H](CO)NC(=O)[C@@H](NC(=O)[C@H](Cc1ccccc1)NC(=O)[C@@H](NC(=O)CNC(=O)[C@H](CCC(=O)O)NC(=O)C(C)(C)NC(=O)[C@@H](N)Cc1ccc(O)cc1)[C@@H](C)O)[C@@H](C)O)[C@@H](C)CC)C(=O)N[C@@H](CCC(=O)O)C(=O)N[C@@H](CCCCN)C(=O)N[C@@H](CCCNC(=N)N)C(=O)N[C@@H](C)C(=O)N[C@@H](C)C(=O)NC(C)(C)C(=O)N[C@@H](CCC(=O)O)C(=O)N[C@@H](Cc1ccccc1)C(=O)N[C@H](C(=O)N[C@@H](CCC(=O)O)C(=O)N[C@@H](Cc1c[nH]c2ccccc12)C(=O)N[C@@H](CC(C)C)C(=O)N[C@@H](CCCCN)C(=O)N[C@@H](CC(N)=O)C(=O)N[C@H](C(=O)NCC(=O)N1CCC[C@H]1C(=O)N[C@@H](CO)C(=O)N[C@@H](CO)C(=O)NCC(=O)N[C@@H](C)C(=O)N1CCC[C@H]1C(=O)N1CCC[C@H]1C(=O)N1CCC[C@H]1C(=O)N[C@@H](CO)C(N)=O)[C@@H](C)O)[C@@H](C)CC)C(=O)O [SEQ ID NO: 9, Y-Aib-E-G-T-F-T-S-D-L-S-I-Q-K(γE-x53)-E-K-R-A-A-Aib-E-F-I-E-W-L-K-N-T-G-P-S-S-G-A-P-P-P-S-NH2] (H-Y[Aib]EGTFTSDLSIQK([γGlu-Palmitoyl])EKRAA[Aib]EFIEWLKNTGPSSGAPPPS-NH2)
[1]; 10, 30 and 100 μg/kg s.c. once daily, 4 weeks, all three doses
  HbA1c level versus db/db control mice at the end of the study: lower HbA1c level
[1]; 10, 30 or 100 μg/kg s.c. once daily, 4 weeks
  blood glucose level versus db control mice at the end of the study: significant lower blood glucose level
[1]; 10, 30 or 100 μg/kg s.c. once daily, 4 weeks, compared with liraglutide
  blood glucose after 4 weeks of treatment: strong and dose-dependent decrease in blood glucose, superior to liraglutide in the medium and highest dose
[1]; single 100 μg/kg s.c., fed db/db mice
  blood glucose compared to db/db control mice, 24 h profile: significant decrease in blood glucose
[2]; 3 μg/kg s.c. (not significant, p=0.78)
  reduction of feed intake after 22 hours: 11%
[2]; 10 μg/kg s.c.
  reduction of feed intake after 22 hours: 62%
[3]
  pEC50: 11.44
[4]; 10 μg/kg s.c. once daily, 3 weeks
  decrease of body weight, relative change from baseline: up to 15.1%
[4]; 10 μg/kg, 3-week treatment, mean ± SEM
  Overall weight change: -6.2 ± 0.4 g
